# Source: US11471459B2, “Compounds with enhanced anti-tumor effects” (FONDAZIONE PER L'ISTITUTO ONCOLOGICO DI RICERCA (IOR), priority 2018, dated 2022)
# Key:
# REC1 [1] = assay: Propidium iodide cell cycle staining; assay type: cell-based, human; settings: REC1, 500 and 2000 nM, 72 h
# Method: (§1) Lymphoma cells (10^6 per condition) were fixed in cold 70% ethanol (for at least 30 minutes at 4° C.), added dropwise to the cell pellet while vortexing. Cells were washed ×2 in PBS and Spin at 2000 rpm; supernatant was discarded and cells suspended in PBS (0.5 mL) and treated with Ribonuclease (50 μl of 100 μg/mL RNase). Then 200 μl of propidium iodide (50 μg/ml) were added and data acquisition was performed by using BD FACS-Canto II.
# 39 lymphoma cell lines = assay: Proliferation MTT assay, median across the 39 cell lines; assay type: cell-based; settings: 95% C.I. 100-20000 nM, 72 h
# Method: Thirty-nine cell lines derived from activated B cell-like (ABC) (n=3) and germinal center B Cell (GCB) (n=12) diffuse large B cell lymphoma (DLBCL), mantle cell lymphoma (MCL) (n=9), chronic lymphocytic leukemia (CLL) (n=2), Hodgkin lymphoma (HL) (n=4), cutaneous T cell lymphoma (CTCL) (n=3), peripheral T cell lymphoma (PTCL) (n=1), anaplastic large T cell lymphoma (ALCL) (n=4), acute T cell leukemia (ATCL) (n=1) were cultured according to the recommended conditions. All media were supplemented with fetal bovine serum (10%), Penicillin-Streptomycin-Neomycin (˜5,000 units penicillin, 5 mg streptomycin and 10 mg neomycin/mL, Sigma) and L-glutamine (1%). […]
# Cells were seeded in 96-well plates (non-tissue culture treated) at a density of 10,000 cells for all cell lines. […] Wells containing medium only were included on each plate and served as blanks for absorbance readings. […] Cells were then lysed with 25% SDS lysis buffer and absorbance was read at 570 nm using an AD340 plate reader (Beckman Coulter International SA, Switzerland). Absorbance values were expressed in percentage of proliferating cells in comparison with control cells (control corresponds to 100%).
# Binomial exact 95% confidence intervals (95% C.I.s) were calculated for median percentages. Differences in IC50 values among lymphoma subtypes were calculated using the t-Student test. […]
# PLL cell lines = assay: Proliferation MTT assay, median per subtype; assay type: cell-based; settings: PLL cell lines (n=2), 72 h
# OCI-LY-19 [2] = assay: Propidium iodide cell cycle staining; assay type: cell-based; settings: OCI-LY-19, 500 and 2000 nM, 72 h
# Method: as §1
# [3] = test system: human Mantle cell lymphoma REC1 cells; assay: Xenograft experiment, REC1 model; assay type: in vivo; settings: 200 mg/Kg i.p. once per day, 5 days per week
# Method: (§2) EG-011 was dissolved in dimethyl sulphoxide (DMSO) to obtain a stock concentration of 10 mM for in vitro experiments. EG-011 was dissolved in 25% hydroxypropyl beta cyclodextrin (HP-β-CD) in water and adjusted at pH 6.0 using NaOH (0.1 N) and HCl (0.1 N) for in vivo experiments. Application volume was 4.5 mL/kg (100 mg in 4.5 mL), and mice received 200 microliters (corresponding to 200 mg/kg) though intra peritoneal i.p. injection, once per day and five days per week.
# NOD-Scid (NOD.CB17-Prkdcscid/NCrHsd) mice were purchased from Harlan Laboratory (five-six weeks of age, approximately 20 g body weight). Mice maintenance and animal experiments were performed under institutional guidelines established for the Animal Facility and with study protocols approved by the local Cantonal Veterinary Authority. Mice were subcutaneously engrafted with 15×10^6 of human Mantle cell lymphoma REC1 cells and divided into two experimental groups. Starting with tumors of 180 mm^3 volume, mice underwent treatment with single agent while controls received vehicle only. EG-011 was administered 5 days per week at the dose of 200 mg/kg (200 microliters) though i.p. injection.
# OCI-LY-8 = assay: Proliferation MTT assay, 72 h; assay type: cell-based; settings: OCI-Ly8, OCI-LY-8 (GCB-DLBCL), 72 h exposure
# Method: (§3) Thirty-nine cell lines derived from activated B cell-like (ABC) (n=3) and germinal center B Cell (GCB) (n=12) diffuse large B cell lymphoma (DLBCL), mantle cell lymphoma (MCL) (n=9), chronic lymphocytic leukemia (CLL) (n=2), Hodgkin lymphoma (HL) (n=4), cutaneous T cell lymphoma (CTCL) (n=3), peripheral T cell lymphoma (PTCL) (n=1), anaplastic large T cell lymphoma (ALCL) (n=4), acute T cell leukemia (ATCL) (n=1) were cultured according to the recommended conditions. All media were supplemented with fetal bovine serum (10%), Penicillin-Streptomycin-Neomycin (˜5,000 units penicillin, 5 mg streptomycin and 10 mg neomycin/mL, Sigma) and L-glutamine (1%).
# as §2
# (§4) Cells were seeded in 96-well plates (non-tissue culture treated) at a density of 10,000 cells for all cell lines. Each compound was dissolved in dimethyl sulphoxide (DMSO). For treatment of cells, compounds were serially diluted in the appropriate tissue culture medium, at a range of 20 mcM-78 nM following a 1:2 dilution factor and added to cells (in three replicates). Cells were incubated for 72 hours at 37° C., 5% CO2. DMSO alone was added to negative control (untreated) cells. Wells containing medium only were included on each plate and served as blanks for absorbance readings. MTT (Sigma-Aldrich Chemie GmbH, Buchs, Switzerland) was prepared as a 5 mg/ml stock in PBS and filter-sterilized. MTT solution (22 μL) was added to each well and tissue culture plates were incubated at 37° C. for 4 hours. Cells were then lysed with 25% SDS lysis buffer and absorbance was read at 570 nm using an AD340 plate reader (Beckman Coulter International SA, Switzerland). Absorbance values were expressed in percentage of proliferating cells in comparison with control cells (control corresponds to 100%).
# OCI-LY-10 = assay: Proliferation MTT assay, 72 h; assay type: cell-based; settings: Homo sapiens, OCI-Ly10, OCI-LY-10 (ABC-DLBCL), 72 h exposure
# Method: as §3, §2, §4
# L-1236 = assay: Proliferation MTT assay, 72 h; assay type: cell-based; settings: L-1236 (HL), 72 h exposure
# Method: as §3, §2, §4
# GRANTA519 = assay: Proliferation MTT assay, 72 h; assay type: cell-based; settings: Homo sapiens, Granta-519, GRANTA519 (MCL), 72 h exposure
# Method: as §3, §2, §4
# HH = assay: Proliferation MTT assay, 72 h; assay type: cell-based; settings: Homo sapiens, HH (T Cell - CTCL), 72 h exposure
# Method: as §3, §2, §4
# SU-DHL-6 = assay: Proliferation MTT assay, 72 h; assay type: cell-based; settings: Homo sapiens, SU-DHL-6 (GCB-DLBCL), 72 h exposure
# Method: as §3, §2, §4
# SP53 = assay: Proliferation MTT assay, 72 h; assay type: cell-based; settings: SP53 (MCL), 72 h exposure
# Method: as §3, §2, §4
# H9 = assay: Proliferation MTT assay, 72 h; assay type: cell-based; settings: Homo sapiens, H9 (T Cell - CTCL), 72 h exposure
# Method: as §3, §2, §4
# Karpas-422 = assay: Proliferation MTT assay, 72 h; assay type: cell-based; settings: Homo sapiens, Karpas-422 (GCB-DLBCL), 72 h exposure
# Method: as §3, §2, §4
# AM-HLH = assay: Proliferation MTT assay, 72 h; assay type: cell-based; settings: AM-HLH (HL), 72 h exposure
# Method: as §3, §2, §4
# REC1 [4] = assay: Proliferation MTT assay, 72 h; assay type: cell-based; settings: Homo sapiens, REC1 (MCL), 72 h exposure
# Method: as §3, §2, §4
# TOLEDO = assay: Proliferation MTT assay, 72 h; assay type: cell-based; settings: Homo sapiens, TOLEDO (GCB-DLBCL), 72 h exposure
# Method: as §3, §2, §4
# FEPD = assay: Proliferation MTT assay, 72 h; assay type: cell-based; settings: FEPD (T Cell-PTCL), 72 h exposure
# Method: as §3, §2, §4
# MEC1 = assay: Proliferation MTT assay, 72 h; assay type: cell-based; settings: Homo sapiens, MEC1 (CLL), 72 h exposure
# Method: as §3, §2, §4
# PCL-12 = assay: Proliferation MTT assay, 72 h; assay type: cell-based; settings: PCL-12 (CLL), 72 h exposure
# Method: as §3, §2, §4
# JURKAT = assay: Proliferation MTT assay, 72 h; assay type: cell-based; settings: Homo sapiens, JURKAT (T Cell Leukemia), 72 h exposure
# Method: as §3, §2, §4
# OCI-LY-19 [5] = assay: Proliferation MTT assay, 72 h; assay type: cell-based; settings: Homo sapiens, OCI-LY19, OCI-LY-19 (GCB-DLBCL), 72 h exposure
# Method: as §3, §2, §4
# OCI-LY-1 = assay: Proliferation MTT assay, 72 h; assay type: cell-based; settings: Homo sapiens, OCI-Ly1, OCI-LY-1 (GCB-DLBCL), 72 h exposure
# Method: as §3, §2, §4
smiles,measurement,setting,value
"C=CC(=O)N1CCCC(n2c(=O)c3ncccc3n(Cc3ccc(Oc4ccccc4)cc3)c2=O)C1 (stereo not shown) [EG-011, 1-[(4-phenoxyphenyl)methyl]-3-(1-prop-2-enoyl-3-piperidyl)pyrido[3,2-d]pyrimidine-2,4-dione]",cells in the sub-GO phase (dead cells),REC1 [1],dose dependent increase of the cells in the sub-GO phase
same,IC50,39 lymphoma cell lines,2.5 µM
same,IC50,PLL cell lines,7.5 µM
same,cells in the sub-GO phase (dead cells),OCI-LY-19 [2],dose dependent increase of the cells in the sub-GO phase
same,body weight of treated animals (in vivo toxicity),[3],no reduction in the body weight
same,tumor growth (volume) versus control,"[3]; Day 6, Day 7, Day 9, P<0.05",delayed tumor growth
same,tumor weight versus control,[3]; P<0.001 (FIG. 8),delayed
same,IC50,OCI-LY-8,0.3 µM
same,IC50,OCI-LY-10,5 µM
same,IC50,L-1236,9 µM
same,IC50,GRANTA519,0.25 µM
same,IC50,HH,15 µM
same,IC50,SU-DHL-6,0.5 µM
same,IC50,SP53,1 µM
same,IC50,H9,1 µM
same,IC50,Karpas-422,1.5 µM
same,IC50,AM-HLH,18 µM
same,IC50,REC1 [4],0.1 µM
same,IC50,TOLEDO,0.6 µM
same,IC50,FEPD,3 µM
same,IC50,MEC1,8 µM
same,IC50,PCL-12,7 µM
same,IC50,JURKAT,15 µM
same,IC50,OCI-LY-19 [5],0.15 µM
same,IC50,OCI-LY-1,0.25 µM
